# From US7964624B1, “Inhibitors of serine proteases” (priority 2005, dated 2011)
# Molecular target: T1, HCV NS3 protease domain (Hepatitis C virus genotype 1b, UniProt Q9WMX2)
# T1 construct: The first 181 amino acids of NS3 (residues 1027-1207 of the viral polyprotein); hexa-histidine (C); made in house; host or cells: E. coli BL21/DE3 pLysS
# Test: biochemical
# Settings: Enzyme Assay 1 (HCV NS3 Protease Domain Peptide Cleavage Assay) activity, apparent Ki class
# T1 sequence (Q9WMX2 1027-1207, other chains not shown): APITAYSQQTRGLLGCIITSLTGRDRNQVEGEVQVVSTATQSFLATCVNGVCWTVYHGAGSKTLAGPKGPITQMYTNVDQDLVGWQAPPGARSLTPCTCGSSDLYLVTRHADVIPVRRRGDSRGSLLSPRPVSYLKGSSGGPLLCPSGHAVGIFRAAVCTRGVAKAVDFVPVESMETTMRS
row,SMILES,Ki [µM]
1,CCC[C@H](NC(=O)[C@@H]1C[C@]2(CC(c3cccc(Cl)c3)=NO2)CN1C(=O)[C@@H](NC(=O)CCc1ccc(F)cc1)C(C)(C)C)C(=O)C(=O)NC1CC1 [Compound 7],> 0.5
2,CCC[C@H](NC(=O)[C@@H]1C[C@]2(CC(c3ccc(OC)c(OC4CCCC4)c3)=NO2)CN1C(=O)[C@@H](NC(=O)O[C@H]1CCOC1)C(C)(C)C)C(=O)C(=O)NC1CC1 [Compound 8],> 0.5
3,CCC[C@H](NC(=O)[C@@H]1C[C@]2(CC(c3ccc(C)c(F)c3)=NO2)CN1C(=O)O[C@H]1CCOC1)C(=O)C(=O)NC1CC1 [Compound 11],> 0.5
4,CCC[C@H](NC(=O)[C@@H]1C[C@]2(CC(c3cccc(Cl)c3)=NO2)CN1C(=O)[C@@H](NC(=O)OCC1CCCC1)C(C)(C)C)C(=O)C(=O)NC1CC1 [Compound 14],> 0.5
5,CCC[C@H](NC(=O)[C@@H]1C[C@]2(CC(c3ccc(OC)c(Cl)c3)=NO2)CN1C(=O)[C@@H](NC(=O)O[C@H]1CCOC1)C(C)(C)C)C(=O)C(=O)NC1CC1 [Compound 15],0.1 to 0.5
6,CCC[C@H](NC(=O)[C@@H]1C[C@]2(CC(c3ccc(OC)cc3)=NO2)CN1C(=O)[C@@H](NC(=O)CC1CCOCC1)C(C)(C)C)C(=O)C(=O)NC1CC1 [Compound 16],> 0.5
7,CCC[C@H](NC(=O)[C@@H]1C[C@]2(CC(c3cccc(Cl)c3)=NO2)CN1C(=O)[C@@H](NC(=O)C1(O)CCCC1)C(C)(C)C)C(=O)C(=O)NC1CC1 [Compound 20],> 0.5
8,CCC[C@H](NC(=O)[C@@H]1C[C@]2(CC(c3cccc(F)c3)=NO2)CN1C(=O)[C@@H](NC(=O)O[C@H]1CCOC1)C(C)(C)C)C(=O)C(=O)NC1CC1 [Compound 24],0.1 to 0.5
9,CCC[C@H](NC(=O)[C@@H]1C[C@]2(CC(c3cccc(Cl)c3)=NO2)CN1C(=O)[C@@H](NC(=O)OCC1CCC1)C(C)(C)C)C(=O)C(=O)NC1CC1 [Compound 27],0.1 to 0.5
10,CCC[C@H](NC(=O)[C@@H]1C[C@]2(CC(c3ccc(Cl)c(Cl)c3)=NO2)CN1C(=O)[C@@H](NC(=O)O[C@H]1CCOC1)C(C)(C)C)C(=O)C(=O)NC1CC1 [Compound 32],0.1 to 0.5
11,CCC[C@H](NC(=O)[C@@H]1C[C@]2(CC(c3cccc(Cl)c3)=NO2)CN1C(=O)[C@@H](NC(=O)NC1CCCCC1)C(C)(C)C)C(=O)C(=O)NC1CC1 [Compound 33],< 0.1
12,CCC[C@H](NC(=O)[C@@H]1C[C@]2(CC(c3ccc(C)c(C)c3)=NO2)CN1C(=O)[C@@H](NC(=O)O[C@H]1CCOC1)C(C)(C)C)C(=O)C(=O)NC1CC1 [Compound 36],0.1 to 0.5
13,CCC[C@H](NC(=O)[C@@H]1C[C@]2(CC(c3cccc(Cl)c3)=NO2)CN1C(=O)[C@@H](NC(=O)CC1CCOCC1)C1CCCCC1)C(=O)C(=O)NC1CC1 [Compound 37],> 0.5
14,CCC[C@H](NC(=O)[C@@H]1C[C@]2(CC(c3cccc(Cl)c3)=NO2)CN1C(=O)[C@@H](NC(=O)OCc1ccccc1Cl)C(C)(C)C)C(=O)C(=O)NC1CC1 [Compound 39],0.1 to 0.5
15,CCC[C@H](NC(=O)[C@@H]1C[C@]2(CC(c3cncc(Br)c3)=NO2)CN1C(=O)[C@@H](NC(=O)CC1CCCCC1)C(C)(C)C)C(=O)C(=O)NC1CC1 [Compound 41],< 0.1
16,CCC[C@H](NC(=O)[C@@H]1C[C@]2(CC(c3cccc(Cl)c3)=NO2)CN1C(=O)[C@@H](NC(=O)CCC(C)=O)C(C)(C)C)C(=O)C(=O)NC1CC1 [Compound 44],0.1 to 0.5
17,CCC[C@H](NC(=O)[C@@H]1C[C@]2(CC(c3ccc(CC)cc3)=NO2)CN1C(=O)O[C@H]1CCOC1)C(=O)C(=O)NC1CC1 [Compound 47],> 0.5
18,CCC[C@H](NC(=O)C1C[C@]2(CC(c3ccc4c(c3)OCO4)=NO2)CN1C(=O)c1ccc[nH]1)C(=O)C(=O)NC1CC1 (stereo partly drawn) [Compound 51],> 0.5

row,SMILES,Ki [µM]
1,CCC[C@H](NC(=O)C1C[C@]2(CC(c3ccc(C(F)(F)F)cc3)=NO2)CN1C(=O)[C@@H](NC(=O)O[C@H]1CCOC1)C(C)(C)C)C(=O)C(=O)NC1CC1 (stereo partly drawn) [Compound 52],0.1 to 0.5
2,CCC[C@H](NC(=O)[C@@H]1C[C@]2(CC(c3ccccc3)=NO2)CN1C(=O)CC1CCN(Cc2c(Cl)cccc2Cl)CC1)C(=O)C(=O)NC1CC1 [Compound 53],> 0.5
3,CCC[C@H](NC(=O)[C@@H]1C[C@]2(CC(c3ccc(Cl)cc3)=NO2)CN1C(=O)[C@@H](NC(=O)CC1CCCCC1)C(C)(C)C)C(=O)C(=O)NC1CC1 [Compound 55],0.1 to 0.5
4,CCC[C@H](NC(=O)[C@@H]1C[C@]2(CC(C3CCCC3)=NO2)CN1C(=O)[C@@H](NC(=O)O[C@H]1CCOC1)C(C)(C)C)C(=O)C(=O)NC1CC1 [Compound 70],> 0.5
5,CCC[C@H](NC(=O)[C@@H]1C[C@]2(CC(c3cccc(Cl)c3)=NO2)CN1C(=O)[C@@H](NC(=O)[C@H]1COc2ccccc2O1)C(C)(C)C)C(=O)C(=O)NC1CC1 [Compound 71],> 0.5
6,CCC[C@H](NC(=O)[C@@H]1C[C@]2(CC(c3cccc(Cl)c3)=NO2)CN1C(=O)[C@@H](NC(=O)CC1CCCC1)C(C)(C)C)C(=O)C(=O)NC1CC1 [Compound 72],0.1 to 0.5
7,CCC[C@H](NC(=O)[C@@H]1C[C@]2(CC(c3cccc(Cl)c3)=NO2)CN1C(=O)[C@@H](NC(=O)Cc1sc(C)nc1C)C(C)(C)C)C(=O)C(=O)NC1CC1 [Compound 75],0.1 to 0.5
8,CCC[C@H](NC(=O)[C@@H]1C[C@]2(CC(c3cccc(Cl)c3)=NO2)CN1C(=O)[C@@H](NC(=O)NC1CC1)C(C)(C)C)C(=O)C(=O)NC1CC1 [Compound 76],0.1 to 0.5
9,CCC[C@H](NC(=O)[C@@H]1C[C@]2(CC(c3ccc(Cl)c(Cl)c3)=NO2)CN1C(=O)[C@@H](NC(=O)CC1CCOCC1)C(C)(C)C)C(=O)C(=O)NC1CC1 [Compound 78],0.1 to 0.5
10,CCC[C@H](NC(=O)[C@@H]1C[C@@]2(CC(c3ccccc3)=NO2)CN1C(=O)c1ccc[nH]1)C(=O)C(=O)NC1CC1 [Compound 80],> 0.5
11,CCC[C@H](NC(=O)[C@@H]1C[C@]2(CC(c3cccc(Cl)c3)=NO2)CN1C(=O)[C@@H](NC(=O)CN1CCOCC1)C(C)(C)C)C(=O)C(=O)NC1CC1 [Compound 81],> 0.5
12,CCC[C@H](NC(=O)[C@@H]1C[C@]2(CC(c3ccc4c(c3)OCO4)=NO2)CN1C(=O)[C@@H](NC(=O)CC1CCOCC1)C(C)(C)C)C(=O)C(=O)NC1CC1 [Compound 82],0.1 to 0.5
13,CCC[C@H](NC(=O)[C@@H]1C[C@]2(CC(c3cccc(Cl)c3)=NO2)CN1C(=O)[C@@H](NC(=O)O[C@H]1CCOC1)C(C)(C)C)C(=O)C(=O)NC1CC1 [Compound 83],0.1 to 0.5
14,CCC[C@H](NC(=O)[C@@H]1C[C@]2(CC(c3cccc(Cl)c3)=NO2)CN1C(=O)[C@@H](NC(=O)OCCF)C(C)(C)C)C(=O)C(=O)NC1CC1 [Compound 85],0.1 to 0.5
15,CCC[C@H](NC(=O)[C@@H]1C[C@]2(CC(c3cccc(Cl)c3)=NO2)CN1C(=O)[C@@H](NC(=O)CC1CCOCC1)C(C)(C)C)C(=O)C(=O)NC1CC1 [Compound 92],0.1 to 0.5
16,CCC[C@H](NC(=O)[C@@H]1C[C@]2(CC(c3cccc(Cl)c3)=NO2)CN1C(=O)[C@@H](NC(=O)NCC(N)=O)C(C)(C)C)C(=O)C(=O)NC1CC1 [Compound 94],< 0.1
17,CCC[C@H](NC(=O)[C@@H]1C[C@]2(CC(c3cc(F)cc(Cl)c3)=NO2)CN1C(=O)[C@@H](NC(=O)CC1CCCCC1)C(C)(C)C)C(=O)C(=O)NC1CC1 [Compound 95],0.1 to 0.5
18,CCC[C@H](NC(=O)[C@@H]1C[C@]2(CC(c3ccccc3)=NO2)CN1C(=O)[C@@H](NS(=O)(=O)c1cccc2ccccc12)C(C)(C)C)C(=O)C(=O)NC1CC1 [Compound 101],> 0.5
